Assay [1] relates to MCM2 phosphorylation in COLO205 cells. Put plainly: Inhibitory effect on MCM2 phosphorylation using cells (Western blot). It is filed as cell-based. Conditions: Homo sapiens, COLO 205, 0.1 μM test compound, 24 hours, class by percent phosphorylation of MCM2, read-out: Test Example 2 Inhibitory effect on MCM2 phosphorylation. Here is the method:
[Inhibitory Effect on Phosphorylation Using Cells]
COLO205 cells derived from human colon adenocarcinoma (RCB2127, RIKEN BRC) were cultured in 10 cm dishes using RPMI-1640 medium (SIGMA, R8758) supplemented with 10% FCS (Equitech-bio) and 5% penicillin/streptomycin (GIBCO, 15140). After the cells were cultured to a confluence of 70 to 90%, the medium was removed, and the cells were treated with trypsin (2 mL, TrypLE Express, GIBCO, 12604-021) and then harvested using a new medium.
COLO205 cells were seeded in 6-well plates (FALCON, 35046) to 2.5×10^5 cells (1 ml) per well and cultured overnight in a 5% CO2 incubator. A drug solution, which was prepared by adding 1.5 μl of a 0.1-mM stock solution in DMSO of a test compound to 500 μl of medium, was added to each well (to a final drug concentration of 0.1 μM), and then cultured for another 24 hours.
Cells were cultured for 24 hours in the presence of a test compound, harvested using a similar way as described above, washed with PBS, and then pelletized and stored at −80° C. The frozen cells were thawed, subsequently suspended immediately in 2×SDS-PAGE electrophoresis buffer (1×10^5 cells per 10 μl), and heated at 95° C. for 10 minutes, leading to the dissolution and denaturation of the proteins. The resulting sample solutions were subjected to SDS-PAGE using a 5-20% gradient acrylamide gel (e-PAGEL (5-20%), ATTO, E-T520L). After the electrophoresis was completed, the gel was immersed in tris-glycine buffer supplemented with 20% methanol, and the proteins in the gel were transferred onto a PVDF membrane (MILLIPORE, Immobilon-P, IPVH00010) using a semi-dry transfer apparatus (TRNS-BLOT SD SEMI-DRY […] CELL, BIO RAD).
The transferred PVDF membrane was blocked with 5% skim milk (Difco Skim Milk, BD, 232100), and then subjected to reaction with an anti-MCM2 goat antibody (N-19, Santa Cruz, sc-9839) or anti-phosphorylated MCM2 rabbit antibody (S53) (Bethyl, A300-756A) as a primary antibody and additionally with an anti-α tubulin mouse antibody (Clone DM 1A, SIGMA, 9026) as an internal control. Each band was detected by chemiluminescence using an HRP-labeled anti-goat IgG donkey antibody (Santa Cruz, sc2020), anti-rabbit IgG sheep antibody (Roche, 12015218001), or anti-mouse IgG donkey antibody (Jackson ImmunoResearch, 715-035-151) as a secondary antibody. The combinations of and the diluted concentrations of the primary and secondary antibodies were as indicated below.
The bands which were detected were normalized using the amount of endogenous α-tubulin as a reference, and the percent phosphorylation of MCM2 was calculated for each of the tested compounds. Their inhibitory effects on MCM2 phosphorylation were indicated by a triple asterisk (***) in the case where the percent phosphorylation of MCM2 was less than 20%, by a dual asterisk (**) in the case where the percent phosphorylation of MCM2 was not less than 20% and less than 50%, and by a single asterisk (*) in the case where the percent phosphorylation of MCM2 was not less than 50% and less than 70%.
A general note: A western blot detects proteins with antibodies after separation by electrophoresis.

The target in assay [2] is human Cdc7/human ASK complex protein (Homo sapiens (Human), UniProt O00311). The assay is described as follows: Inhibitory effect on Cdc7 protein kinase (MSA assay kit). It is filed as biochemical. To be noted: human Cdc7/human ASK complex, FITC-labeled MCM2 peptide substrate, reaction 5 hours at room temperature; read-out: Test Example 1 Cdc7 IC50 value. Here is the method:
[Inhibitory Effect on Cdc7 Protein Kinase]
Measurement of kinase activity was carried out using an MSA assay kit (QuickScout Screening Assist™ Kit, Carna Biosciences, Inc.).
Assay buffer (20 mM HEPES, 0.01% Triton X-100™, 2 mM dithiothreitol, pH 7.5) was used to prepare a substrate mixture solution comprising 4 μM of a kinase-reaction substrate (FITC-labeled MCM2 peptide), 40 mM MgCl2, and 20 μM ATP.
The enzyme supplied in the kit (human Cdc7/human ASK complex protein) was diluted in the assay buffer so as to be at 7 nM, thereby preparing an enzyme solution.
The stock solution of each test compound was diluted in DMSO to prepare diluted DMSO solutions of 10 concentrations (0.00003 mM, 0.0001 mM, 0.0003 mM, 0.001 mM, 0.003 mM, 0.01 mM, 0.03 mM, 0.1 mM, 0.3 mM, 1 mM), each of which was further diluted 25 times in the assay buffer to make a drug solution (a solution containing 4% DMSO).
The kinase reaction was performed in wells of a polypropylene 384-well plate in which 5 μl of each of the drug solutions or of a solvent (assay buffer containing 4% DMSO), 5 μl of the substrate mixture solution, and 10 μl of the enzyme solution were mixed. The assay buffer, instead of the enzyme solution, was added to blank wells. After the reaction at room temperature for 5 hours, 60 μl of the termination buffer supplied in the kit was added to each well to stop the reaction. The percent inhibition of each reaction was determined using a LabChip EZ Reader II system (manufactured by Caliper Life Sciences), according to the protocol provided with the assay kit. In this case, the peak heights of the separated substrate and the phosphorylated substrate were represented as S and P, respectively, and the percent inhibition (%) by a tested compound was calculated according to the following formula: Percent inhibition(%)=(1−(C−A)/(B−A))×100 wherein A denotes P/(P+S) for a blank well, B denotes P/(P+S) for a solvent well, and C denotes P/(P+S) for a compound-added well.
The IC50 value of a tested compound was calculated by regression analysis of the percent inhibition values versus the (logarithmic) concentrations of the tested compound.

By IC50 is commonly meant the point on the concentration scale where inhibition reaches its midpoint.

human Cdc7/human ASK complex protein, sequence (O00311 whole entry): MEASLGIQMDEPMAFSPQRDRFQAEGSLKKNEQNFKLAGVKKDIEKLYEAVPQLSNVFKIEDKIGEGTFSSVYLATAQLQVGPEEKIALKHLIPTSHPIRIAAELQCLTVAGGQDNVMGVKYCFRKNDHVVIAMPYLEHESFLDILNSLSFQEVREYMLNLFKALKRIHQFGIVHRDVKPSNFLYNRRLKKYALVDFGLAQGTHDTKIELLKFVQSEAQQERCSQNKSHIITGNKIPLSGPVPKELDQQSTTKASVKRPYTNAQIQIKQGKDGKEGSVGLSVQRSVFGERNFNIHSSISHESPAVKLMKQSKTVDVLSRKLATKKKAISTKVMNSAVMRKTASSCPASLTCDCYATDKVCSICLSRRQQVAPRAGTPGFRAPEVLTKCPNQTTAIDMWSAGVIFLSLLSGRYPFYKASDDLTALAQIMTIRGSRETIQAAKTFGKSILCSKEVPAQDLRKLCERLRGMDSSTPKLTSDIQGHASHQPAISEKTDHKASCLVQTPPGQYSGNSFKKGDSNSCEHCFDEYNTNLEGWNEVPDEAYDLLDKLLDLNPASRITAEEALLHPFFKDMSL
human Cdc7/human ASK complex protein, sequence (Q9UBU7 whole entry partner): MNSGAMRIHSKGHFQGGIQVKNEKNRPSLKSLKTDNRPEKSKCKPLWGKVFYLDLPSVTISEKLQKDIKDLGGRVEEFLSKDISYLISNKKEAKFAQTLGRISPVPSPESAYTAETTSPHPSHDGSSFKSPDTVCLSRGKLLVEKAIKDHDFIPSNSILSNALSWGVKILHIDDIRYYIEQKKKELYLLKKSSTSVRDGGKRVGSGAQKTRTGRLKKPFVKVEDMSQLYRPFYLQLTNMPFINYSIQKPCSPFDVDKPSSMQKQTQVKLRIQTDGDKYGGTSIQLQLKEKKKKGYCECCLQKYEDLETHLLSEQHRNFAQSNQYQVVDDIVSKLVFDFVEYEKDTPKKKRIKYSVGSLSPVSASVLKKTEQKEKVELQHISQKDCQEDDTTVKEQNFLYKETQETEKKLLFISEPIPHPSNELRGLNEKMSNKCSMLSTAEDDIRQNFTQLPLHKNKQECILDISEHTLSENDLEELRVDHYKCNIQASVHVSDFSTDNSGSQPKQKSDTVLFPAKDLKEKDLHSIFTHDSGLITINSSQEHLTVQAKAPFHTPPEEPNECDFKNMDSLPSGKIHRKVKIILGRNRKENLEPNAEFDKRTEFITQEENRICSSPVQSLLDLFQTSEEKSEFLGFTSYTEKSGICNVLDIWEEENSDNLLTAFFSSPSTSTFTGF

`CCOC(=O)C1=C(N2CCc3ccc(OC)cc3C2)O/C(=C\c2c[nH]c3ncccc23)C1=O` [Example 244, Ethyl 5-[(1H-pyrrolo[2,3-b]pyridin-3-yl)methylene]-2-(7-methoxy-3,4-dihydroisoquinolin-2(1H)-yl)-4-oxo-4,5-dihydrofuran-3-carboxylate]: the inhibition at 0.1 µM in assay [1] was < 20%. Besides, the IC50 in assay [2] came out at 4 nM.
Taken in the same sequence, the figures for `CC(C)OC(=O)C1=C(NN2CCOCC2)O/C(=C\c2c[nH]c3ncccc23)C1=O` [Example 245, Isopropyl 5-[(1H-pyrrolo[2,3-b]pyridin-3-yl)methylene]-2-(morpholinoamino)-4-oxo-4,5-dihydrofuran-3-carboxylate] were < 20% and 8 nM.
On to `CCOC(=O)C1=C(NN2CCN(CC(F)(F)F)CC2)O/C(=C\c2c[nH]c3ncccc23)C1=O` [Example 246, Ethyl 5-[(1H-pyrrolo[2,3-b]pyridin-3-yl)methylene]-4-oxo-2-{[4-(2,2,2-trifluoroethyl)piperazinyl]amino}-4,5-dihydrofuran-3-carboxylate], for which, in assay [1], the inhibition at 0.1 µM was < 20%. In assay [2], the IC50 is 8 nM.

Values taken from patent US8742113B2, “Furanone derivative” (SBI Biotech Co., Ltd., priority 2011, dated 2014).
